Series [1] in a line: on-resin RCM stapling (Rink amide MBHA), 16 mol% Ru catalyst 1 (Grubbs I), then TFA/TIS/H2O cleavage. To be noted: the molecule shown is the open-chain precursor, DCE, 40.0 °C.
A short description of series [2]: RCM, 10 mol% Ru catalyst 5 (o-tolyl NHC Hoveyda type), quenched with ethyl vinyl ether. To be noted: DCE, 2.0 mM, 40.0 °C, 4.0 h.
Series [3] can be described thus: RCM, 10 mol% Ru catalyst 3 (Hoveyda-Grubbs II), quenched with ethyl vinyl ether. Particulars: DCE, 2.0 mM, 40.0 °C, 4.0 h.
The nature of series [4]: RCM, 10 mol% Z-selective cyclometalated Ru catalyst 6 (Mes), quenched with ethyl vinyl ether. To be noted: DCE, 2.0 mM, 40.0 °C, 4.0 h.
The nature of series [5]: RCM, 10 mol% Ru catalyst 4 (nitro-Hoveyda/Grela), quenched with ethyl vinyl ether. To be noted: DCE, 2.0 mM, 40.0 °C, 4.0 h.
A short description of series [6]: RCM, 10 mol% Z-selective cyclometalated Ru catalyst 7 (Dipp), quenched with ethyl vinyl ether. Particulars: DCE, 2.0 mM, 40.0 °C, 4.0 h.
A short description of series [7]: RCM, 10 mol% Ru catalyst 1 (Grubbs I), quenched with ethyl vinyl ether. Particulars: DCE, 2.0 mM, 40.0 °C, 4.0 h.
A short description of series [8]: RCM, 10 mol% Ru catalyst 2 (Grubbs II), quenched with ethyl vinyl ether. Particulars: DCE, 2.0 mM, 40.0 °C, 4.0 h.
Series [9] is described as follows: on-resin RCM stapling (Rink amide MBHA), 16 mol% Z-selective Ru catalyst 7 (Dipp), then TFA/TIS/H2O cleavage. To be noted: the molecule shown is the open-chain precursor, DCE, 40.0 °C.
Series [10] in a line: on-resin RCM stapling (Rink amide MBHA), 16 mol% Ru catalyst 2 (Grubbs II), then TFA/TIS/H2O cleavage. Particulars: the molecule shown is the open-chain precursor, DCE, 40.0 °C.
The nature of series [11]: on-resin RCM stapling (Rink amide MBHA), 16 mol% Z-selective Ru catalyst 6 (Mes), then TFA/TIS/H2O cleavage. Particulars: the molecule shown is the open-chain precursor, DCE, 40.0 °C.
Series [12] in a line: on-resin RCM stapling (Rink amide MBHA), 16 mol% Ru catalyst 4 (nitro-Hoveyda/Grela), then TFA/TIS/H2O cleavage. Particulars: the molecule shown is the open-chain precursor, DCE, 40.0 °C.
A short description of series [13]: on-resin RCM stapling (Rink amide MBHA), 16 mol% Ru catalyst 3 (Hoveyda-Grubbs II), then TFA/TIS/H2O cleavage. To be noted: the molecule shown is the open-chain precursor, 21-membered ring, DCE, 40.0 °C.
Series [14] is described as follows: on-resin RCM stapling (Rink amide MBHA), 16 mol% Ru catalyst 5 (o-tolyl NHC Hoveyda type), then TFA/TIS/H2O cleavage. Particulars: the molecule shown is the open-chain precursor, 33-membered ring, DCE, 40.0 °C.
Setting [15] is: from C=CCSC[C@H](NC(=O)OC(C)(C)C)C(=O)N[C@@H](CC(C)C)C(=O)N[C@@H](CC(C)C)C(=O)N[C@@H](CSCC=C)C(=O)OC, 18-membered ring.
The mark [16] stands for this setting: from C=CCOC[C@H](NC(=O)OC(C)(C)C)C(=O)N[C@@H](CC(C)C)C(=O)N[C@@H](CC(C)C)C(=O)N[C@@H](COCC=C)C(=O)OC, 18-membered ring.
Where [17] appears, read: from C=CCOc1ccc(C[C@H](NC(=O)OC(C)(C)C)C(=O)N[C@@H](CC(C)C)C(=O)N[C@@H](CC=C)C(=O)OC)cc1, 17-membered ring.
Setting [18] is: from C=CCCOc1ccc(C[C@H](NC(=O)OC(C)(C)C)C(=O)N[C@@H](CC(C)C)C(=O)N[C@@H](CC=C)C(=O)OC)cc1, 18-membered ring.
Where [19] appears, read: from C=CCCOc1ccc(C[C@H](NC(=O)OC(C)(C)C)C(=O)N[C@@H](CC(C)C)C(=O)N[C@@H](CCC=C)C(=O)OC)cc1, 19-membered ring.
The mark [20] stands for this setting: from C=CC[C@H](NC(=O)OC(C)(C)C)C(=O)N[C@@H](Cc1cn(S(=O)(=O)c2ccc(C)cc2)cn1)C(=O)NCC(=O)N[C@@H](CC=C)C(=O)OC, 14-membered ring.
Where [21] appears, read: from C=CC[C@H](NC(=O)OC(C)(C)C)C(=O)N[C@@H](CC(C)C)C(=O)N[C@@H](CC(C)C)C(=O)N[C@@H](CC=C)C(=O)OCc1ccccc1, 14-membered ring.
The mark [22] stands for this setting: from C=CC[C@H](NC(=O)CNC(=O)[C@@H]1CCCN1C(=O)[C@H](CC=C)NC(=O)OC(C)(C)C)C(=O)OC, 14-membered ring.

In [1] (33-membered ring), `C=CCCCCCC[C@@](C)(NC(=O)[C@H](CC(N)=O)NC(=O)[C@@H](NC(=O)OCC1c2ccccc2-c2ccccc21)C(C)C)C(=O)N[C@@H](CCCCN)C(=O)N[C@@H](CCCCN)C(=O)N[C@H](C(=O)N[C@@H](CC(C)C)C(=O)NCC(=O)N[C@@H](CCCCN)C(=O)N[C@@](C)(CCCC=C)C(=O)N[C@H](C(=O)N[C@@H](CCCCN)C(=O)N[C@H](C(=O)N[C@H](C(=O)N[C@@H](CCCCN)C(N)=O)C(C)C)C(C)C)[C@@H](C)CC)[C@@H](C)CC` registered a ring closure, conversion by HPLC of 88%.

Regarding `C=CCCCCCC[C@@](C)(NC(=O)[C@H](Cc1ccccc1)NC(=O)[C@@H](NC(=O)[C@H](CCC(N)=O)NC(=O)[C@H](CCC(N)=O)NC(=O)[C@H](CO)NC(=O)[C@H](CCC(N)=O)NC(=O)OCC1c2ccccc2-c2ccccc21)[C@@H](C)O)C(=O)N[C@@H](CC(N)=O)C(=O)N[C@@H](CC(C)C)C(=O)N[C@@H](Cc1c[nH]c2ccccc12)C(=O)N[C@@H](CCCNC(=N)N)C(=O)N[C@@H](CC(C)C)C(=O)N[C@@H](CC(C)C)C(=O)N[C@@](C)(CCCC=C)C(=O)N[C@@H](CCC(N)=O)C(=O)N[C@@H](CC(N)=O)C(N)=O`, the ring closure, conversion by HPLC in series [1] (33-membered ring) is 92%.

On to `C=CCCC[C@](C)(NC(=O)[C@H](Cc1ccccc1)NC(=O)[C@@H](NC(=O)[C@H](Cc1c[nH]cn1)NC(=O)[C@](C)(CCCC=C)NC(=O)[C@H](CCCNC(=N)N)NC(=O)[C@H](CCC(=O)O)NC(=O)[C@H](CC(C)C)NC(=O)[C@H](CCC(=O)O)NC(=O)[C@H](C)NC(=O)OCC1c2ccccc2-c2ccccc21)[C@@H](C)O)C(=O)N[C@@H](CC(C)C)C(=O)N[C@@H](Cc1c[nH]cn1)C(=O)N[C@@H](CCC(N)=O)C(=O)N[C@@H](CCCNC(=N)N)C(N)=O`, for which, in series [1] (21-membered ring), the ring closure, conversion by HPLC was 93%.

In the case of `COC(=O)[C@@H]1CSCC=CCSC[C@H](NC(=O)OC(C)(C)C)C(=O)N[C@@H](CC(C)C)C(=O)N[C@@H](CC(C)C)C(=O)N1` [Boc-Cys(S-allyl)-Leu-Leu-Cys(S-allyl)-OMe], the ring closure, isolated yield in [2] (setting [15]) was 42%; in [3] (setting [15]), 79%; in [4] (setting [15]) it was 40%; in series [5] (setting [15]), 83%; in [6] (setting [15]), 33%; in series [7] (setting [15]), 77%. Besides, in series [8] (setting [15]), the ring closure, isolated yield was 81%.

On to `COC(=O)[C@@H]1COCC=CCOC[C@H](NC(=O)OC(C)(C)C)C(=O)N[C@@H](CC(C)C)C(=O)N[C@@H](CC(C)C)C(=O)N1` [Boc-Ser(O-allyl)-Leu-Leu-Ser(O-allyl)-OMe], for which the ring closure, isolated yield in series [2] (setting [16]) turned out to be 44%; in [4] (setting [16]), 36%; in series [5] (setting [16]), 74%; in series [6] (setting [16]), 34%; in series [7] (setting [16]), 73%; in series [8] (setting [16]) it was 76%.

In the case of `COC(=O)[C@@H]1CC=CCOc2ccc(cc2)C[C@H](NC(=O)OC(C)(C)C)C(=O)N[C@@H](CC(C)C)C(=O)N1` [Boc-Tyr(O-allyl)-Leu-allylGly-OMe], the ring closure, isolated yield in series [2] (setting [17]) stood at 45%; in series [3] (setting [17]), 63%; in [4] (setting [17]), 47%; in series [5] (setting [17]), 66%; in series [6] (setting [17]) it was 41%; in series [7] (setting [17]) it was 58%. Further, the ring closure, isolated yield in series [8] (setting [17]) was found to be 71%.

For `COC(=O)[C@@H]1CC=CCCOc2ccc(cc2)C[C@H](NC(=O)OC(C)(C)C)C(=O)N[C@@H](CC(C)C)C(=O)N1` [Boc-Tyr(O-homoallyl)-Leu-allylGly-OMe], the ring closure, isolated yield in series [2] (setting [18]) is 24%; in series [3] (setting [18]) it was 55%; in [4] (setting [18]), 21%; in [5] (setting [18]), 60%; in series [6] (setting [18]) it was 17%; in [7] (setting [18]), 54%. Further, the ring closure, isolated yield in series [8] (setting [18]) turned out to be 61%.

Consider `COC(=O)[C@@H]1CCC=CCCOc2ccc(cc2)C[C@H](NC(=O)OC(C)(C)C)C(=O)N[C@@H](CC(C)C)C(=O)N1` [Boc-Tyr(O-homoallyl)-Leu-homoallylGly-OMe], for which the ring closure, isolated yield was 44% in series [2] (setting [19]); 70% in series [3] (setting [19]); 26% in series [4] (setting [19]); 66% in series [5] (setting [19]); 24% in series [6] (setting [19]); 68% in series [7] (setting [19]). In series [8] (setting [19]), this compound showed a ring closure, isolated yield of 77%.

In the case of `COC(=O)[C@@H]1CC=CC[C@H](NC(=O)OC(C)(C)C)C(=O)N[C@@H](Cc2cn(S(=O)(=O)c3ccc(C)cc3)cn2)C(=O)NCC(=O)N1` [Boc-allylGly-His(Tos)-Gly-allylGly-OMe], the ring closure, isolated yield in [2] (setting [20]) was below 5%; in series [3] (setting [20]) it was below 10%; in [5] (setting [20]), 12%; in series [7] (setting [20]), 14%; in series [8] (setting [20]), 18%.

Consider `CC(C)C[C@@H]1NC(=O)[C@@H](NC(=O)OC(C)(C)C)CC=CC[C@@H](C(=O)OCc2ccccc2)NC(=O)[C@H](CC(C)C)NC1=O` [Boc-allylGly-Leu-Leu-allylGly-OBn], for which the ring closure, isolated yield in series [2] (setting [21]) is 39%; in series [3] (setting [21]), 61%; in [4] (setting [21]), 32%; in [5] (setting [21]) it was 64%; in [6] (setting [21]), 30%; in series [7] (setting [21]) it was 70%. Also, the ring closure, isolated yield in [8] (setting [21]) was 74%.

Regarding `COC(=O)[C@@H]1CC=CC[C@H](NC(=O)OC(C)(C)C)C(=O)N2CCC[C@H]2C(=O)NCC(=O)N1` [Boc-allylGly-Pro-Gly-allylGly-OMe], the ring closure, isolated yield turned out to be 20% in [2] (setting [22]); 41% in [3] (setting [22]); 17% in series [4] (setting [22]); 36% in [5] (setting [22]); 18% in series [6] (setting [22]); 37% in series [7] (setting [22]). In addition, in [8] (setting [22]), the ring closure, isolated yield came to 48%.

`C=CCCC[C@](C)(NC(=O)[C@H](CC(C)C)NC(=O)[C@H](CC(C)C)NC(=O)[C@H](CC(=O)O)NC(=O)[C@](C)(CCCC=C)NC(=O)[C@H](Cc1ccccc1)NC(=O)[C@@H](NC(=O)[C@@H](NC(=O)OCC1c2ccccc2-c2ccccc21)[C@@H](C)CC)[C@@H](C)O)C(=O)N[C@@H](Cc1ccc(O)cc1)C(=O)N[C@@H](Cc1ccc(O)cc1)C(=O)NCC(=O)N1CCC[C@H]1C(N)=O` [Fmoc-Ile-Thr-Phe-S5-Asp-Leu-Leu-S5-Tyr-Tyr-Gly-Pro-NH-resin]: the ring closure, conversion by HPLC in [1] (21-membered ring) worked out at 90%.

In the case of “Fmoc-Ala-Glu-Leu-Glu-Arg-S5-His-Thr-Phe-S5-Leu-His-Gln-Arg-NH-resin”, the ring closure, conversion by HPLC in series [9] (21-membered ring) came out at 70%; in series [10] (21-membered ring), 85%; in series [11] (21-membered ring) it was 80%; in series [12] (21-membered ring), 92%; in [13] it was 88%.

Regarding “Fmoc-Gln-Ser-Gln-Gln-Thr-Phe-R8-Asn-Leu-Trp-Arg-Leu-Leu-S5-Gln-Asn-NH-resin”, the ring closure, conversion by HPLC turned out to be 70% in series [9] (33-membered ring); 90% in series [10] (33-membered ring); 75% in series [11] (33-membered ring); 85% in series [12] (33-membered ring); 80% in [14].

The record behind these values is article PMC4618480.
